Assay results as given in patent US10660928B2, “Pharmaceutical composition containing combination extracts of Moutan Root Bark, Angelica Dahurica Root, bupleurum root or fractions thereof for prevention and treatment of neurodegenerative disorder” (UNIVERSITY-INDUSTRY COOPERATION GROUP OF KYUNG HEE …, priority 2014, dated 2020).

Tests used:
[1] = test system: SH-SY5Y, the human neuroblastoma cell line; assay: Cell survival rate (calcein) in normal cells, cytotoxicity; type: cell-based; conditions: 1 μg/ml
Method: Particularly, SH-SY5Y, the human neuroblastoma cell line, was inoculated in DMEM/F12 (Dulbeco's Modified Eagle's Medium & Ham's F12; Gibco, USA) supplemented with 10% FBS, followed by culture in a 37° C., 5% CO2/95% air (O2) incubator. Then, the cultured cells were transferred into a serum free medium at the density of 2.5×10^4 cells/well. […] The cells were collected and the cell survival rate was measured by using calcein. The survival rate of the cells that were increased or decreased compared with that of the normal control cells not-treated with the extract or its active component above and instead treated with DMSO was calculated and presented as percentage (%). Particularly, SH-SY5Y cells were cultured by the same manner as described in Experimental Example <1-1>. The cultured cells were transferred in a serum free medium at the density of 2.5×10^4 cells/well. […] The cells were collected and the cell survival rate was measured by using calcein. The cell survival rate that was increased or decreased compared with that of the normal control group not-treated with the extract or its active component above and instead treated with DMSO was calculated and presented as percentage (%).

Park7 (DJ-1) = assay: RT-PCR of Park7 (DJ-1) expression, atrazine-damaged cells; type: cell-based, human; conditions: 1 μg/ml
Method: (§1) Particularly, SH-SY5Y cells were cultured by the same manner as described in Experimental Example <1-2>, and mitochondrial malfunction was induced. Then, the cells with the malfunctioned mitochondria were suspended in TRIzol (Invitrogen, USA) and total RNA was extracted therefrom according to the manufacturer's protocol. […] PCR was performed with GeneAmp PCR system 9700 (Applied Biosystem, USA) under the required optimum condition by using the synthesized cDNA as a template in the presence of the forward and reverse primers listed in Table 5 below, leading to the amplification of COX III and Park? (DJ-1) genes. The amplified PCR products were electrophoresed on 1.5% agarose gel. The relative concentration was measured by using an image densitometer (Alpha Ease FC software; Alpha Innotech, USA) under UV. The level of mRNA was standardized by comparison with the level of 18S rRNA. The normal control was not treated with the extract of the invention or the active component thereof but instead treated with DMSO alone. The negative control was treated with 50 μg/ml of atrazine alone to induce mitochondrial damage and not treated with the extract or the active component thereof. The gene expression level was investigated by the same manner as described above.

[2] = test system: SH-SY5Y, the human neuroblastoma cell line; assay: MTT assay, atrazine-induced mitochondria complex 1 damage; type: cell-based; conditions: treatment 1 μg/ml, inducer atrazine 50 μg/ml
Method: Particularly, SH-SY5Y, the human neuroblastoma cell line, was inoculated in DMEM/F12 (1:1, Dulbeco's Modified Eagle's Medium & Ham's F12; Gibco, USA) supplemented with 10% FBS, followed by culture in a 37° C., 5% CO2/95% air (O2) incubator. Then, the cultured cells were transferred into a serum free medium at the density of 1×10^5 cells/well. […] Sigma, USA), followed by culture for 4 hours. Then, the MTT formazan precipitate formed by survived cells was dissolved in 100 μl of 0.04 N HCl/isopropanol. OD540 was measured with an ELISA microplate reader (Molecular Devices, USA). The damage of mitochondria complex 1 was confirmed to see how the damage level was either increased or decreased, compared with the normal control group treated with DMSO without the extract or its active component. In the meantime, the negative control group was treated with 50 μg/ml of atrazine alone to induce mitochondrial damage and was not treated with the extract or its active component. Then, MTT assay was performed by the same manner as described above.

SH-SY5Y cells = assay: ATP assay, atrazine-induced loss of intracellular ATP; type: cell-based, human; conditions: treatment 1 μg/ml, inducer atrazine 50 μg/ml
Method: Particularly, SH-SY5Y cells were cultured by the same manner as described in Experimental Example <1-2>, to which 50 μg/ml of atrazine was treated to induce malfunction of mitochondria. Then, 100 μl of the cell lysate obtained from the cells with the malfunctioned mitochondria was mixed with 100 μl of luciferin-luciferase by using ATP bioluminescent somatic cell assay kit (Sigma, USA), followed by culture at 20° C. for 10 minutes. The supernatant was obtained. Fluorescence signal was measured by using LB 9501 Lumat luminometer (Berthold, Germany). The fluorescence of the control well containing the cell free medium was used as the background. The measured values were calculated by subtracting the background, and the amount of ATP was normalized to the protein concentration. The normal control was not treated with the extract of the invention or the active component thereof but instead treated with DMSO alone. All the results were presented as % by the normal control to present the intracellular ATP level. The negative control was treated with 50 μg/ml of atrazine alone to induce mitochondrial damage and not treated with the extract or the active component thereof. The Intracellular ATP level was measured by the same manner as described above.

[3] = test system: cytochrome c oxidase subunit III (COX III); assay: RT-PCR of COX III expression, atrazine-damaged cells; type: cell-based, human; conditions: 1 μg/ml
Method: as §1

BV2 cells [4] = assay: Griess method, nitric oxide in medium of LPS-induced cells; type: cell-based, mouse; conditions: BV2, treatment 1.0 μg/ml, inducer LPS 100 ng/ml
Method: Particularly, BV2 cells were cultured by the same manner as described in Experimental Example <3-1>, and inflammatory response was induced. Then, 100 μl of the cell culture medium was obtained, to which 100 μl of Griess reagent comprising hydrochloric acid containing 5% sulfanilamide and 2% naphthylethylenediamine was added, followed by reaction in a dark room for 30 minutes. Upon completion of the reaction, OD540 was measured with an EISA microplate reader (Versamax, USA). The concentration of nitric oxide in the medium was calculated using the standard calibration curve of sodium nitrite. The normal control was not treated with the extract or the active component thereof but treated with DMSO. The negative control was treated with 100 ng/ml of LPS alone to induce inflammatory response but not treated with the extract or the active component. Then, the nitric oxide concentration reduction effect was investigated by the same manner as described above.
(§2) Particularly, BV2 cells were cultured by the same manner as described in Experimental Example <3-1>, and inflammatory response was induced. Then, 100 μl of the cell culture medium was obtained, to which 100 μl of Griess reagent comprising hydrochloric acid containing 5% sulfanilamide and 2% naphthylethylenediamine was added, followed by reaction in a dark room for 30 minutes. Upon completion of the reaction, OD540 was measured with an EISA microplate reader (Versamax, USA). The concentration of nitric oxide in the medium was calculated using the standard calibration curve of sodium nitrite. To measure the ROS concentration, the cells were treated with 1 μM DCF-DA and 0.05 μM bisbenzimide (Hoechst 33342), followed by staining at 37° C. for 1 hour. After the staining, the fluorescence intensity of DCF-DA was measured at 485 nm/535 nm, and the fluorescence intensity of bisbenzimide was measured at 335 nm/460 nm. Based on the ratio of DCF-DA/bisbenzimide, ROS was quantified. The amount of ROS, either increased or decreased, was compared with that of the normal control not treated with the extract but treated with DMSO, and the results were presented as %. The negative control was treated with 100 ng/ml of LPS alone to induce inflammatory response but not treated with the extract or the active component thereof. Then, the nitric oxide concentration reduction effect and the ROS concentration reduction effect were investigated by the same manner as described above.

BV2 cells [5] = assay: DCF-DA intracellular ROS, LPS-induced cells; type: cell-based, mouse; conditions: BV2, treatment 1.0 μg/ml, inducer LPS 100 ng/ml
Method: Particularly, BV2 cells were cultured by the same manner as described in Experimental Example <3-1>, and inflammatory response was induced. Then, the cells induced with inflammatory response were treated with 1 μM DCF-DA and 0.05 μM bisbenzimide (Hoechst 33342), followed by staining at 37° C. for 1 hour. After the staining, the fluorescence intensity of DCF-DA was measured at 485 nm/535 nm, and the fluorescence intensity of bisbenzimide was measured at 335 nm/460 nm. Based on the ratio of DCF-DA/bisbenzimide, ROS was quantified. The amount of ROS, either increased or decreased, was compared with that of the normal control not treated with the extract or the active component thereof but treated with DMSO, and the results were presented as %. The negative control was treated with 100 ng/ml of LPS alone to induce inflammatory response but not treated with the extract or the active component thereof. Then, the generation of ROS was investigated by the same manner as described above.
as §2

BV2 cells [6] = assay: MTT assay, LPS-induced inflammatory response; type: cell-based, mouse; conditions: BV2, treatment 1.0 μg/ml, inducer LPS 100 ng/ml
Method: Particularly, BV2 cells were cultured by the same manner as described in Experimental Example <3-1>. Then, the cultured cells were transferred into a serum free medium at the density of 1×10^5 cells/well. The cells were treated with the Bupleurum Root 90% ethanol extract prepared in Example <1-3>, saikosaponin A, saikosaponin B2, saikosaponin B4, or saikosaponin D at the concentration of 1.0 μg/ml, followed by culture for 4 hours. The cells were then treated with 100 ng/ml of lipopolysaccharide (LPS), followed by culture for 20 hours to induce inflammatory response. MTT assay was performed with the cells induced with inflammatory response by the same manner as described in Experimental Example <1-2>. The damage of mitochondria complex 1 was confirmed to see how the damage level was either increased or decreased, compared with the normal control group treated with DMSO without the extract or its active component. In the meantime, the negative control group was treated with 100 ng/ml of LPS alone to induce inflammatory response and was not treated with the extract or its active component. Then, MTT assay was performed by the same manner as described above.

NF-kB p65/ReIA = assay: RT-PCR of NF-kB p65/ReIA mRNA, LPS-induced cells; type: cell-based, mouse; conditions: BV2, treatment 1.0 μg/ml, LPS 100 ng/ml; negative control 100.00
Method: (§3) Particularly, BV2 cells were cultured by the same manner as described in Experimental Example <3-1>, and inflammatory response was induced. Then, RT-PCR was performed with the cells by the same manner as described in Experimental Example <1-4>, followed by quantitative analysis of the expression levels of iNOS, IL-6, and NF-kB p65/ReIA genes. The normal control was not treated with the extract of the invention or the active component thereof but treated with DMSO alone. The negative control was not treated with the extract or the active component but treated with 100 ng/ml of LPS alone to induce inflammatory response. Then, the expression of the inflammatory response marker gene was confirmed by the same manner as described above.

interleukin-6, (IL-6) = assay: RT-PCR of IL-6 mRNA, LPS-induced cells; type: cell-based, mouse; conditions: BV2, treatment 1.0 μg/ml, LPS 100 ng/ml; negative control 100.00
Method: as §3

[7] = test system: inducible nitric oxide synthase (iNOS); assay: RT-PCR of iNOS mRNA, LPS-induced cells; type: cell-based, mouse; conditions: BV2, treatment 1.0 μg/ml, LPS 100 ng/ml; negative control 100.00
Method: as §3

[8] = normal SH-SY5Y cells, 4 hours, calcein

SMILES | Cell survival rate (% of control) [1, 8] | Park7(DJ-1)/18S rRNA (Park7 (DJ-1); with atrazine) | Park7(DJ-1)/18S rRNA (Park7 (DJ-1); without atrazine) | MTT (% of control) [2] | Intracellular ATP content (% of control) (SH-SY5Y cells) | COX III/18S rRNA ([3]; with atrazine) | COX III/18S rRNA ([3]; without atrazine) | Cell survival rate (% of control) ([1]; human, 4 h) | NO (BV2 cells [4]) [µM] | DCF-DA-ROS (% of control) (BV2 cells [5]) | MTT (% of control) (BV2 cells [6]) | p65/ReIA mRNA (% of control) (NF-kB p65/ReIA) | IL-6 mRNA (% of control) (interleukin-6, (IL-6)) | iNOS mRNA (% of control) [7]
COc1ccc(C(C)=O)c(O)c1 [Paeonol, 2′-Hydroxy-4′-methoxyacetophenone] | 102.2 ± 9.10 % of control | 0.95 ± 0.07 | 1.22 ± 0.08 | 101.8 ± 7.21 % of control | 101.9 ± 7.42 % of control | 1.07 ± 0.07 | 1.05 ± 0.03 |  |  |  |  |  |  | 
C[C@@]12CC(=O)[C@H]3C[C@]1(O)O[C@H](O2)[C@@H]3COC(=O)c1ccccc1 [paeoniflorigenone, [(2s,3as,5s,7ar,8s)-3a-hydroxy-7a-methyl-6-oxohexahydro-2,5-methano-1,3-benzodioxol-8-yl]methyl benzoate] |  | 0.45 ± 0.02 | 0.98 ± 0.08 | 95.5 ± 6.09 % of control | 89.1 ± 7.97 % of control | 0.86 ± 0.07 | 1.04 ± 0.05 | 98.9 ± 8.10 % of control |  |  |  |  |  | 
C[C@@]12C[C@@]3(O)O[C@@H](O1)[C@]1(COC(=O)c4ccccc4)[C@H]3C[C@@]12O[C@@H]1O[C@H](CO)[C@@H](O)[C@H](O)[C@H]1O [paeoniflorin] | 97.9 ± 7.34 % of control | 2.03 ± 0.07 | 1.05 ± 0.08 | 96.4 ± 7.44 % of control | 94.3 ± 6.44 % of control | 0.92 ± 0.08 | 1.11 ± 0.04 |  |  |  |  |  |  | 
C[C@H]1O[C@@H](O[C@H]2CC[C@@]3(C)[C@@H](CC[C@]4(C)[C@@H]3C=C[C@]35OC[C@@]6(CCC(C)(C)C[C@H]63)[C@@H](O)C[C@]54C)[C@]2(C)CO)[C@H](O)[C@@H](O[C@@H]2O[C@H](CO)[C@@H](O)[C@H](O)[C@H]2O)[C@H]1O [saikosaponin A, (3beta,4alpha,16beta)-13,28-Epoxy-16,23-dihydroxyolean-11-en-3-yl-6-deoxy-3-O-beta-D-glucopyranosyl-beta-D-galactopyranoside] |  |  |  |  |  |  |  |  | 10.8 ± 3.6 | 198.24 ± 3.72 % of control | 91.49 ± 6.20 % of control | 40.38 ± 1.05 % of control | 18.05 ± 1.23 % of control | 14.85 ± 1.47 % of control
